Experimental data as given in US20230019491A1, “PYRIMIDINE TBK/IKKe INHIBITOR COMPOUNDS AND USES THEREOF” (Merck Patent GmbH, priority 2017, published 2023).

Assays:
TBK1 = molecular target: T1, TBK1 (Homo sapiens, UniProt Q9UHD2); assay: TBK biochemical assay; settings: 10 point 1:4 dose response, 30 uM top concentration, 90 min at 25° C., LabChip EZ Reader II; read-out: TBK1_IC50
T1 sequence (Q9UHD2 1-729): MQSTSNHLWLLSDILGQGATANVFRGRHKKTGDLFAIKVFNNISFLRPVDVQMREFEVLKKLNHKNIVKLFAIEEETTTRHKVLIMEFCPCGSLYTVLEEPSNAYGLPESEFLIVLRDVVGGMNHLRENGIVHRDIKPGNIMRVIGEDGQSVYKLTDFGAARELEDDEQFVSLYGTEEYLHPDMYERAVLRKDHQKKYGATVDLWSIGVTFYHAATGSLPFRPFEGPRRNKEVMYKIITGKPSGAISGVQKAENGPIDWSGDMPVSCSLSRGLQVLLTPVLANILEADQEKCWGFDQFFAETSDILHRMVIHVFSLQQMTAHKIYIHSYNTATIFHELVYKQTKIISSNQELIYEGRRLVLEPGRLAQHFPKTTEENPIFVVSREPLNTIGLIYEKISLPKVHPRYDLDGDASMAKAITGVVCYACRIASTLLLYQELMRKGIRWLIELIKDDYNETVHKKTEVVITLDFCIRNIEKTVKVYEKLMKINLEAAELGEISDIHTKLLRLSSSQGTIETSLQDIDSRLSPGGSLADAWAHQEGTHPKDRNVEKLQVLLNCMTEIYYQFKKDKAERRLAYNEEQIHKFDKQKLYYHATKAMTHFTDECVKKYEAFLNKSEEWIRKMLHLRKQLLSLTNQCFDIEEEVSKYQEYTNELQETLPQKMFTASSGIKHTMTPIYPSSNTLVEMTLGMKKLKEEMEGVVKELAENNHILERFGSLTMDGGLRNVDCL
Method in brief: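 Read-out was a Caliper LabChip mobility-shift assay, run after a 90-min, 25 °C reaction of TBK1 with substrate and compounds, quenched with stop buffer. Control wells received staurosporine at 10 uM final.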

IKKε = molecular target: T2, IKKε (Homo sapiens, UniProt Q14164); assay: IKKε biochemical assay; settings: 10 point 1:4 dose response, 30 uM top concentration, 90 min at 25° C., LabChip EZ Reader II; read-out: IKKε_IC50
T2 sequence (Q14164 1-716): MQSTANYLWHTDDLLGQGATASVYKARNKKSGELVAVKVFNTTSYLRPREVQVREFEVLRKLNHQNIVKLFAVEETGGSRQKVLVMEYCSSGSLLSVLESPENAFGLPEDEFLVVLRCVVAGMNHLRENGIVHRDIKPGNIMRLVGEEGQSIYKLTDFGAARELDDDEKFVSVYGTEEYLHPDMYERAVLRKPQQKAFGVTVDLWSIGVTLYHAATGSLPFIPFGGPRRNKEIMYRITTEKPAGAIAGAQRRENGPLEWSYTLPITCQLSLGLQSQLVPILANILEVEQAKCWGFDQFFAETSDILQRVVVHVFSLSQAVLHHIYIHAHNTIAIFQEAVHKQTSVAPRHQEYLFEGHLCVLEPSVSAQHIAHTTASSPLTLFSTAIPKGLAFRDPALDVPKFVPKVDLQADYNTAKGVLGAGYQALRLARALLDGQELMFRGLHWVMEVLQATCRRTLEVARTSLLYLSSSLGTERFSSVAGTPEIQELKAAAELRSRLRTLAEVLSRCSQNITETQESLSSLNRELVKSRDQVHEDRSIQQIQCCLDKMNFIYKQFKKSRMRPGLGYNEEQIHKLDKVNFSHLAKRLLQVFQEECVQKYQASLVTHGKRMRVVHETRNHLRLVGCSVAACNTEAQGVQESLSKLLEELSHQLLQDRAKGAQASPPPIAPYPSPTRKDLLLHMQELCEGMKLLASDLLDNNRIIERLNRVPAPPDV
Method in brief: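 Mobility-shift LabChip read-out followed a 90 min, 25° C. reaction of IKKε with substrate and test compound, with DMSO held at 1% final. Reactions were ended with stop buffer. Wells with 10 uM final staurosporine defined complete inhibition, and DMSO-only wells the uninhibited level.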

| Structure (SMILES) | IC50 (TBK1) [nM] | IC50 (IKKε) [nM] |
| --- | --- | --- |
| COc1nc(Nc2nccc(-c3ccc(OC4CN(C(=O)[C@@H](C)O)C4)c(C#N)c3)n2)ccc1N1CCN(C2COC2)CC1 [Example 176, 2-([1-[(2R)-2-hydroxypropanoyl]azetidin-3-yl]oxy)-5-[2-([6-methoxy-5-[4-(oxetan-3-yl)piperazin-1-yl]pyridin-2-yl]amino)pyrimidin-4-yl]benzonitrile] | 100 to 1000 | 1000 to 5000 |
| COc1nc(Nc2nccc(-c3ccc(OC4CCN(C(=O)[C@@H](C)O)C4)c(C#N)c3)n2)ccc1N1CCN(C2COC2)CC1 (stereo partly drawn) [Example 184, 2-([1-[(2R)-2-hydroxypropanoyl]pyrrolidin-3-yl]oxy)-5-[2-([6-methoxy-5-[4-(oxetan-3-yl)piperazin-1-yl]pyridin-2-yl]amino)pyrimidin-4-yl]benzonitrile] | 100 to 1000 | 100 to 1000 |
| COc1nc(Nc2nccc(-c3ccc(O[C@H]4CCN(C(=O)[C@H](C)O)C[C@@H]4F)c(C#N)c3)n2)ccc1C1CCN(C2COC2)CC1 [Example 189, 2-[(3S,4S)-3-Fluoro-1-((S)-2-hydroxy-propionyl)-piperidin-4-yloxy]-5-[2-(2-methoxy-1′-oxetan-3-yl-1′,2′,3′,4′,5′,6′-hexahydro-[3,4′]bipyridinyl-6-ylamino)-pyrimidin-4-yl]-benzonitrile] | < 100 | < 100 |
| COc1nc(Nc2nccc(-c3ccc(O[C@H]4CCN(C(=O)C(C)O)C[C@H]4F)c(C#N)c3)n2)ccc1N1CCN(C2COC2)CC1 (stereo partly drawn) [Example 190, 2-[[(3R,4S)-3-fluoro-1-(2-hydroxypropanoyl)piperidin-4-yl]oxy]-5-[2-([6-methoxy-5-[4-(oxetan-3-yl)piperazin-1-yl]pyridin-2-yl]amino)pyrimidin-4-yl]benzonitrile] | < 100 | < 100 |
| COc1nc(Nc2nccc(-c3ccc(O[C@H]4CCN(C(=O)[C@H](C)O)C[C@H]4F)c(C#N)c3)n2)ccc1C1CCN(C2COC2)CC1 [Example 191, 2-[(3R,4S)-3-Fluoro-1-((S)-2-hydroxy-propionyl)-piperidin-4-yloxy]-5-[2-(2-methoxy-1′-oxetan-3-yl-1′,2′,3′4′,5′,6′-hexahydro-[3,4′]bipyridinyl-6-ylamino)-pyrimidin-4-yl]-benzonitrile] | < 100 | < 100 |
| COc1nc(Nc2nccc(-c3ccc(O[C@@H]4CCN(C(=O)[C@H](C)O)C[C@H]4F)c(C#N)c3)n2)ccc1C1CCN(C2COC2)CC1 [Example 192, 2-[(3R,4R)-3-Fluoro-1-((S)-2-hydroxy-propionyl)-piperidin-4-yloxy]-5-[2-(2-methoxy-1′-oxetan-3-yl-1′,2′,3′,4′,5′,6′-hexahydro-[3,4′]bipyridinyl-6-ylamino)-pyrimidin-4-yl]-benzonitrile] | < 100 | < 100 |
| COc1nc(Nc2nccc(-c3ccc(O[C@@H]4CCN(C(=O)[C@@H](C)O)C[C@H]4F)c(C#N)c3)n2)ccc1C1CCN(C2COC2)CC1 [Example 193, 2-[(3R,4R)-3-Fluoro-1-((R)-2-hydroxy-propionyl)-piperidin-4-yloxy]-5-[2-(2-methoxy-1′-oxetan-3-yl-1′,2′,3′,4′,5′,6′-hexahydro-[3,4′]bipyridinyl-6-ylamino)-pyrimidin-4-yl]-benzonitrile] | 100 to 1000 | 100 to 1000 |
| COc1nc(Nc2nccc(-c3ccc(O[C@@H]4CCN(C(=O)[C@H](C)O)C[C@@H]4F)c(C#N)c3)n2)ccc1C1CCN(C2COC2)CC1 [Example 194, 2-[(3S,4R)-3-Fluoro-1-((S)-2-hydroxy-propionyl)-piperidin-4-yloxy]-5-[2-(2-methoxy-1′-oxetan-3-yl-1′,2′,3′,4′,5′,6′-hexahydro-[3,4′]bipyridinyl-6-ylamino)-pyrimidin-4-yl]-benzonitrile] | < 100 | < 100 |
| COc1nc(Nc2nccc(-c3ccc(O[C@@H]4CCN(C(=O)[C@@H](C)O)C[C@@H]4F)c(C#N)c3)n2)ccc1C1CCN(C2COC2)CC1 [Example 195, 2-[(3S,4R)-3-Fluoro-1-((R)-2-hydroxy-propionyl)-piperidin-4-yloxy]-5-[2-(2-methoxy-1′-oxetan-3-yl-1′,2′,3′,4′,5′,6′-hexahydro-[3,4′]bipyridinyl-6-ylamino)-pyrimidin-4-yl]-benzonitrile] | 100 to 1000 | 100 to 1000 |
| COc1nc(Nc2nccc(-c3ccc(O[C@H]4CCN(C(=O)[C@H](C)O)C[C@@H]4F)c(C#N)c3)n2)ccc1N1CCN(C2COC2)CC1 [Example 196, 2-[(3S,4S)-3-Fluoro-1-((S)-2-hydroxy-propionyl)-piperidin-4-yloxy]-5-{2-[6-methoxy-5-(4-oxetan-3-yl-piperazin-1-yl)-pyridin-2-ylamino]-pyrimidin-4-yl}-benzonitrile] | < 100 | < 100 |

Other lines, results leading:

| IC50 (TBK1) [nM] | IC50 (IKKε) [nM] | Structure (SMILES) |
| --- | --- | --- |
| < 100 | < 100 | C[C@@H](O)C(=O)N1CCC(Oc2ccc(-c3ccnc(Nc4ccc(N5CCN(C6COC6)CC5)cc4)n3)cc2C#N)C1 (stereo partly drawn) [Example 179, 2-([1-[(2R)-2-hydroxypropanoyl]pyrrolidin-3-yl]oxy)-5-[2-([4-[4-(oxetan-3-yl)piperazin-1-yl]phenyl]amino)pyrimidin-4-yl]benzonitrile] |
| < 100 | < 100 | COc1nc(Nc2nccc(-c3ccc(OC4CCNC4)c(C#N)c3)n2)ccc1N1CCN(C2COC2)CC1 (stereo not shown) [Example 182, 5-[2-([6-methoxy-5-[4-(oxetan-3-yl)piperazin-1-yl]pyridin-2-yl]amino)pyrimidin-4-yl]-2-(pyrrolidin-3-yloxy)benzonitrile] |
| < 100 | < 100 | COc1nc(Nc2nccc(-c3ccc(OC4CCN(C(=O)[C@H](C)O)C4)c(C#N)c3)n2)ccc1N1CCN(C2COC2)CC1 (stereo partly drawn) [Example 183, 2-([1-[(2S)-2-hydroxypropanoyl]pyrrolidin-3-yl]oxy)-5-[2-([6-methoxy-5-[4-(oxetan-3-yl)piperazin-1-yl]pyridin-2-yl]amino)pyrimidin-4-yl]benzonitrile] |
| < 100 | < 100 | COc1nc(Nc2nccc(-c3ccc(OC4CCNCC4)c(C#N)c3)n2)ccc1N1CCN(C2COC2)CC1 [Example 185, 5-[2-({6-methoxy-5-[4-(oxetan-3-yl)piperazin-1-yl]pyridin-2-yl}amino)pyrimidin-4-yl]-2-(piperidin-4-yloxy)benzonitrile] |
| < 100 | < 100 | COc1nc(Nc2nccc(-c3ccc(OC4CCN(C(=O)CO)CC4)c(C#N)c3)n2)ccc1N1CCN(C2COC2)CC1 [Example 186, 2-(1-(2-hydroxyacetyl)piperidin-4-yloxy)-5-(2-(6-methoxy-5-(4-(oxetan-3-yl)piperazin-1-yl)pyridin-2-ylamino)pyrimidin-4-yl)benzonitrile] |
| < 100 | < 100 | COc1nc(Nc2nccc(-c3ccc(OC4CCN(C(=O)[C@H](C)O)CC4)c(C#N)c3)n2)ccc1N1CCN(C2COC2)CC1 [Example 187, 2-([1-[(2S)-2-hydroxypropanoyl]piperidin-4-yl]oxy)-5-[2-([6-methoxy-5-[4-(oxetan-3-yl)piperazin-1-yl]pyridin-2-yl]amino)pyrimidin-4-yl]benzonitrile] |
| < 100 | < 100 | COc1nc(Nc2nccc(-c3ccc(O[C@H]4CCN(C(=O)[C@@H](C)O)C[C@@H]4F)c(C#N)c3)n2)ccc1C1CCN(C2COC2)CC1 [Example 188, 2-[(3S,4S)-3-Fluoro-1-((R)-2-hydroxy-propionyl)-piperidin-4-yloxy]-5-[2-(2-methoxy-1′-oxetan-3-yl-1′,2′,3′,4′,5′,6′-hexahydro-[3,4′]bipyridinyl-6-ylamino)-pyrimidin-4-yl]-benzonitrile] |
